{"source": "patent US7767659B2", "about": "“Synthesis of naturally occurring ecteinascidins and related compounds” (Pharma Mar, S.A., priority 2002, dated 2010)", "key": {"[1]": {"tested_on": "SK-BR-3", "assay": "Inhibition of cells growth by colorimetric assay (SRB)", "conditions": "Homo sapiens, SK-BR-3, 48 h; for GI50: read-out: GI50 SK-BR3; for CC50: read-out: LC50 SK-BR3; for IC (TGI): read-out: TGI SK-BR3", "method_in_brief": "(§1)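 Colorimetric SRB read (490 nm) on triplicate wells after 48 h at 37 °C, 5% CO2. Dose range 10 to 10^−8 μg/ml; 5×10^3 cells/well pre-attached 18 h.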"}, "[2]": {"tested_on": "SK-MEL-28", "assay": "Inhibition of cells growth by colorimetric assay (SRB)", "conditions": "Homo sapiens, SK-MEL-28, 48 h; for GI50: read-out: GI50 MEL-28; for CC50: read-out: LC50 MEL-28; for IC (TGI): read-out: TGI MEL-28", "method_in_brief": "as §1"}, "[3]": {"tested_on": "DU-145", "assay": "Inhibition of cells growth by colorimetric assay (SRB)", "conditions": "Homo sapiens, DU-145, 48 h; for GI50: read-out: GI50 DU145; for IC (TGI): read-out: TGI DU145", "method_in_brief": "as §1"}, "[4]": {"tested_on": "K-562", "assay": "Inhibition of cells growth by colorimetric assay (SRB)", "conditions": "Homo sapiens, K562, 48 h; for GI50: read-out: GI50 K562; for CC50: read-out: LC50 K562; for IC (TGI): read-out: TGI K562", "method_in_brief": "as §1"}, "[5]": {"tested_on": "LNCaP", "assay": "Inhibition of cells growth by colorimetric assay (SRB)", "conditions": "Homo sapiens, LNCaP, 48 h; for GI50: read-out: GI50 LNCAP; for CC50: read-out: LC50 LNCAP; for IC (TGI): read-out: TGI LNCAP", "method_in_brief": "as §1"}, "[6]": {"tested_on": "IGROV-ET", "assay": "Inhibition of cells growth by colorimetric assay (SRB)", "conditions": "Homo sapiens, 48 h; for GI50: read-out: GI50 IGROV-ET; for CC50: read-out: LC50 IGROV-ET; for IC (TGI): read-out: TGI IGROV-ET", "method_in_brief": "as §1"}, "[7]": {"tested_on": "PANC-1", "assay": "Inhibition of cells growth by colorimetric assay (SRB)", "conditions": "Homo sapiens, PANC-1, 48 h; for GI50: read-out: GI50 PANC-1; for IC (TGI): read-out: TGI PANC-1", "method_in_brief": "as §1"}, "[8]": {"tested_on": "HeLa-APL", "assay": "Inhibition of cells growth by colorimetric assay (SRB)", "conditions": "Homo sapiens, 48 h; for GI50: read-out: GI50 HELA-APL; for CC50: read-out: LC50 HELA-APL", "method_in_brief": "as §1"}, "[9]": {"tested_on": "LoVo-Dox", "assay": "Inhibition of cells growth by colorimetric assay (SRB)", "conditions": "Homo sapiens, 48 h; for GI50: read-out: GI50 LOVO-DOX; for IC (TGI): read-out: TGI LOVO-DOX", "method_in_brief": "as §1"}, "[10]": {"tested_on": "IGROV-1", "assay": "Inhibition of cells growth by colorimetric assay (SRB)", "conditions": "Homo sapiens, IGROV-1, 48 h; for GI50: read-out: GI50 IGROV; for CC50: read-out: LC50 IGROV; for IC (TGI): read-out: TGI IGROV", "method_in_brief": "as §1"}, "[11]": {"tested_on": "HeLa", "assay": "Inhibition of cells growth by colorimetric assay (SRB)", "conditions": "Homo sapiens, HeLa, 48 h; for GI50: read-out: GI50 HELA; for CC50: read-out: LC50 HELA; for IC (TGI): read-out: TGI HELA", "method_in_brief": "as §1"}, "[12]": {"tested_on": "A-549", "assay": "cells", "conditions": "Homo sapiens, A549, 48 h; for GI50: read-out: GI50 A549; for CC50: read-out: LC50 A549; for IC (TGI): read-out: TGI A549", "method_in_brief": "as §1"}, "[13]": {"tested_on": "LoVo", "assay": "cells", "conditions": "Homo sapiens, LoVo, 48 h; for GI50: read-out: GI50 LOVO; for CC50: read-out: LC50 LOVO; for IC (TGI): read-out: TGI LOVO", "method_in_brief": "as §1"}, "[14]": {"tested_on": "HT-29", "assay": "cells", "conditions": "Homo sapiens, HT-29, 48 h; for GI50: read-out: GI50 HT29; for IC (TGI): read-out: TGI HT29", "method_in_brief": "as §1"}}, "data": [{"smiles": "C=CCN1[C@@H]2c3c(cc(C)c(OC)c3O)C[C@H]1[C@H](C#N)N1C2[C@@H]2SC[C@H](NC(=O)c3cc4ccccc4oc3=O)C(=O)OC[C@H]1c1c3c(c(C)c(OC(C)=O)c12)OCO3", "note": "(stereo partly shown) [compound 28]", "values": [{"measurement": "GI50", "setting": "[1]", "value": 0.0473, "unit": "µM"}, {"measurement": "CC50", "setting": "[1]", "value": 1.22, "unit": "µM"}, {"measurement": "IC (TGI)", "setting": "[1]", "value": 0.164, "unit": "µM"}, {"measurement": "GI50", "setting": "[2]", "value": 0.0568, "unit": "µM"}, {"measurement": "CC50", "setting": "[2]", "value": 0.692, "unit": "µM"}, {"measurement": "IC (TGI)", "setting": "[2]", "value": 0.135, "unit": "µM"}, {"measurement": "GI50", "setting": "[3]", "value": 0.0358, "unit": "µM"}, {"measurement": "IC (TGI)", "setting": "[3]", "value": 1.27, "unit": "µM"}, {"measurement": "GI50", "setting": "[4]", "value": 0.0283, "unit": "µM"}, {"measurement": "CC50", "setting": "[4]", "value": 2.69, "unit": "µM"}, {"measurement": "IC (TGI)", "setting": "[4]", "value": 0.135, "unit": "µM"}, {"measurement": "GI50", "setting": "[5]", "value": 0.0229, "unit": "µM"}, {"measurement": "CC50", "setting": "[5]", "value": 0.111, "unit": "µM"}, {"measurement": "IC (TGI)", "setting": "[5]", "value": 0.0504, "unit": "µM"}, {"measurement": "GI50", "setting": "[6]", "value": 0.138, "unit": "µM"}, {"measurement": "CC50", "setting": "[6]", "value": 0.898, "unit": "µM"}, {"measurement": "IC (TGI)", "setting": "[6]", "value": 0.352, "unit": "µM"}, {"measurement": "GI50", "setting": "[7]", "value": 0.0592, "unit": "µM"}, {"measurement": "IC (TGI)", "setting": "[7]", "value": 0.197, "unit": "µM"}, {"measurement": "GI50", "setting": "[8]", "value": 0.0559, "unit": "µM"}, {"measurement": "CC50", "setting": "[8]", "value": 0.682, "unit": "µM"}, {"measurement": "IC (TGI)", "setting": "[8]; read-out: TGI HELA-APL", "value": 0.13, "unit": "µM"}, {"measurement": "GI50", "setting": "[9]", "value": 0.362, "unit": "µM"}, {"measurement": "IC (TGI)", "setting": "[9]", "value": 1.22, "unit": "µM"}, {"measurement": "GI50", "setting": "[10]", "value": 0.049, "unit": "µM"}, {"measurement": "CC50", "setting": "[10]", "value": 1.57, "unit": "µM"}, {"measurement": "IC (TGI)", "setting": "[10]", "value": 0.155, "unit": "µM"}, {"measurement": "GI50", "setting": "[11]", "value": 0.0386, "unit": "µM"}, {"measurement": "CC50", "setting": "[11]", "value": 0.289, "unit": "µM"}, {"measurement": "IC (TGI)", "setting": "[11]", "value": 0.0755, "unit": "µM"}, {"measurement": "GI50", "setting": "[12]", "value": 0.0525, "unit": "µM"}, {"measurement": "CC50", "setting": "[12]", "value": 2.27, "unit": "µM"}, {"measurement": "IC (TGI)", "setting": "[12]", "value": 0.163, "unit": "µM"}, {"measurement": "GI50", "setting": "[13]", "value": 0.0663, "unit": "µM"}, {"measurement": "CC50", "setting": "[13]", "value": 0.687, "unit": "µM"}, {"measurement": "IC (TGI)", "setting": "[13]", "value": 0.212, "unit": "µM"}, {"measurement": "GI50", "setting": "[14]", "value": 0.0765, "unit": "µM"}, {"measurement": "IC (TGI)", "setting": "[14]", "value": 2.05, "unit": "µM"}]}, {"smiles": "C=CCN1[C@@H]2c3c(cc(C)c(OC)c3OC(=O)/C=C/c3ccccc3)C[C@H]1[C@H](C#N)N1C2[C@@H]2SCC(NC(=O)C(F)(F)F)C(=O)OC[C@H]1c1c3c(c(C)c(OC(C)=O)c12)OCO3", "note": "(stereo partly shown) [compound 29]", "values": [{"measurement": "GI50", "setting": "[1]", "value": 0.889, "unit": "µM"}, {"measurement": "CC50", "setting": "[1]", "value": 11.4, "unit": "µM"}, {"measurement": "IC (TGI)", "setting": "[1]", "value": 7.98, "unit": "µM"}, {"measurement": "GI50", "setting": "[2]", "value": 3.74, "unit": "µM"}, {"measurement": "CC50", "setting": "[2]", "value": 11.4, "unit": "µM"}, {"measurement": "IC (TGI)", "setting": "[2]", "value": 11.4, "unit": "µM"}, {"measurement": "GI50", "setting": "[3]", "value": 2.3, "unit": "µM"}, {"measurement": "CC50", "setting": "[3]; read-out: LC50 DU145", "value": 11.4, "unit": "µM"}, {"measurement": "IC (TGI)", "setting": "[3]", "value": 7.93, "unit": "µM"}, {"measurement": "GI50", "setting": "[4]", "value": 0.629, "unit": "µM"}, {"measurement": "CC50", "setting": "[4]", "value": 11.4, "unit": "µM"}, {"measurement": "IC (TGI)", "setting": "[4]", "value": 3.9, "unit": "µM"}, {"measurement": "GI50", "setting": "[5]", "value": 0.878, "unit": "µM"}, {"measurement": "CC50", "setting": "[5]", "value": 11.4, "unit": "µM"}, {"measurement": "IC (TGI)", "setting": "[5]", "value": 6.07, "unit": "µM"}, {"measurement": "GI50", "setting": "[6]", "value": 3.12, "unit": "µM"}, {"measurement": "CC50", "setting": "[6]", "value": 11.4, "unit": "µM"}, {"measurement": "IC (TGI)", "setting": "[6]", "value": 11.4, "unit": "µM"}, {"measurement": "GI50", "setting": "[7]", "value": 6.55, "unit": "µM"}, {"measurement": "CC50", "setting": "[7]; read-out: LC50 PANC-1", "value": 11.4, "unit": "µM"}, {"measurement": "IC (TGI)", "setting": "[7]", "value": 11.4, "unit": "µM"}, {"measurement": "GI50", "setting": "[8]", "value": 4.29, "unit": "µM"}, {"measurement": "CC50", "setting": "[8]", "value": 11.4, "unit": "µM"}, {"measurement": "GI50", "setting": "[9]", "value": 4.09, "unit": "µM"}, {"measurement": "CC50", "setting": "[9]; read-out: LC50 LOVO-DOX", "value": 11.4, "unit": "µM"}, {"measurement": "IC (TGI)", "setting": "[9]", "value": 11.4, "unit": "µM"}, {"measurement": "GI50", "setting": "[10]", "value": 2.19, "unit": "µM"}, {"measurement": "CC50", "setting": "[10]", "value": 11.4, "unit": "µM"}, {"measurement": "IC (TGI)", "setting": "[10]", "value": 11.4, "unit": "µM"}, {"measurement": "GI50", "setting": "[11]", "value": 6.3, "unit": "µM"}, {"measurement": "CC50", "setting": "[11]", "value": 11.4, "unit": "µM"}, {"measurement": "IC (TGI)", "setting": "[11]", "value": 11.4, "unit": "µM"}, {"measurement": "GI50", "setting": "[12]", "value": 4.8, "unit": "µM"}, {"measurement": "CC50", "setting": "[12]", "value": 11.4, "unit": "µM"}, {"measurement": "IC (TGI)", "setting": "[12]", "value": 11.4, "unit": "µM"}, {"measurement": "GI50", "setting": "[13]", "value": 2.85, "unit": "µM"}, {"measurement": "CC50", "setting": "[13]", "value": 11.4, "unit": "µM"}, {"measurement": "IC (TGI)", "setting": "[13]", "value": 11.4, "unit": "µM"}, {"measurement": "GI50", "setting": "[14]", "value": 11.4, "unit": "µM"}, {"measurement": "CC50", "setting": "[14]; read-out: LC50 HT29", "value": 11.4, "unit": "µM"}, {"measurement": "IC (TGI)", "setting": "[14]", "value": 11.4, "unit": "µM"}]}]}
